Like-named read-outs stand apart in the source and are kept apart here.
Key:
[1] = test system: MDA-MB-435S human breast cancer cells; experiment: MTT assay, proliferation of MDA-MB-435S cells; type: cell-based; conditions: Homo sapiens, 72 h
Protocol: The experiments for evaluating the antineoplasmic activities of the compounds according to the present invention were carried out, and the compounds' antineoplasmic activities in vitro was evaluated by determining the inhibitory activities thereof against the proliferation of MDA-MB-435S human breast cancer cells.
The antineoplasmic activities were determined by using the MTT assay, which is based on the metabolic reduction of 3-(4,5-dimethylthylthiazol-2-yl)-2,5-diphenyl tetrazolium bromide (MTT). The dehydrogenases, which are related to NADP (niacinamide adenine dinucleotide phosphate, coenzyme) and present in mitochondrions of living cells, can reduce the yellow MTT to an insoluble, dark purple formazan. […] After the formazan is dissolved in DMSO, the optical density is determined on an ELISA Reader at the wavelength of 550/690 nm.
(§1) The adhered MDA-MB-4355 cells in logarithmic growth phase, were digested by 0.05% trypsogen, counted and formulated into a cell suspension with a medium. After counted, the suspension was inoculated on a 96-well plate with 3000 cells and 100 μl medium per well. The inoculated 96-well plate was placed overnight in an incubator at 37 with 5% CO2 to allow the cells to adhere to the wall. On the next day, the administration of the drugs started. Before the administration, into some of the control wells, each was added 20 μl of the MTT solution (5 mg/ml) without removing the medium therein. After incubated for 3 h, the absorption at A550/690 was recorded as the initial cell concentration. For the drug wells, each was added into 100 μl of medium containing 2 μl of compound solution. For the control wells which use DMSO as background control, each was also added into 100 μl of medium containing 2 μl of DMSO. In addition, each experiment was carried out with adriamycin as the positive control. Subsequently, the 96-well plate was incubated in an incubator at 37 with 5% CO2 for 72 h. each compound was tested in triplicate wells (6 μl of compound solution was put into a sterilized eppendorf centrifuge tube, then 300 μl of medium was added and mixed well, and the mixture was distributed into 3 wells respectively), and at six concentrations which form a gradient. 3 days (72 h) later, 40 μl of MTT solution (5 mg/ml) was put into each well directly (without sucking off the medium therein), and the plate was incubated in the incubator for 3 h and then taken out. The liquid in each well was sucked off, and then 100 μl of DMSO was put into each well to dissolve the crystal completely with slight shake. The absorbance of the solution in each well was determined at 550/690 nm on an ELISA Reader as the cell density after treated with the compound. The growth inhibition of compound against breast cancer cells MDA-MB-435S was represented by the cell survival rate, and IC50 was determined from the profile of cell survival rate vs compound concentration. The calculating formula was as follows: cell survival rate=[(cells+compound)A550/690/(cells+compound vector DMSO)A550/690]×100%

[2] = test system: lung adenocarcinoma cells A549; experiment: MTT assay, A549 cells; type: cell-based; conditions: Homo sapiens, 72 h
Protocol: as §1
(§2) MDA-MB-435S: human breast cancer cells; HCT116: colon cancer cells; A549: lung adenocarcinoma cells; Hela: uterine cervix cancer cells.
(§3) The tests were performed in the same manner as that of experimental example 1, except that for Hela cells, after counted, each well was seeded with 1000 cells and 100 μl of medium on a 96-well plate.

[3] = test system: Hela uterine cervix cancer cells; experiment: MTT assay, Hela cells; type: cell-based; conditions: Homo sapiens, 72 h, 1000 cells per well
Protocol: as §1, §2, §3

[4] = test system: colon cancer cells HCT116; experiment: MTT assay, HCT116 cells; type: cell-based; conditions: Homo sapiens, HCT-116, 72 h
Protocol: as §1, §2, §3

HCT-116 (Colon Cancer) = experiment: SRB assay, HCT-116; type: cell-based; conditions: Homo sapiens, 72 h, read-out: IC50 (μM) (mean ± SD)
Protocol: (§4) Experimental method: The antineoplasmic activities in vitro of the compounds were determined by SRB assay. The detailed procedure was as follows. The cells in the logarithmic growth phase were inoculated on a 96-well microculture plate with a suitable density (100 μl/well), and allowed to attach overnight, followed by addition of the compound at different concentrations to be treated for 72 h. For each concentration, the test was carried out in triplicate wells, and included control wells containing the aqueous medium of normal saline and a blank well containing all medium without cells for zeroing. After cultured overnight, the cells were treated with the compound at different concentrations for 72 h. After the treatment, the culture medium was removed, and the cells were fixed with 10% (wt/vol) trichloroacetic acid (100 μL/well) at 4° C. for 1 h. The cells were then washed with distilled water for 5 times, and died at room temperature, followed by addition of a SRB solution (4 mg/mL, dissolved in 1% glacial acetic acid) at 100 μL/well. The cells were incubated and stained at room temperature for 15 min, then washed with 1% glacial acetic acid for 5 times to remove the uncombined SRB, and died at room temperature. 100 μL of 10 mM Tris solution was added in each well, and the Optical Density (OD) were measured at a wavelength of 560 nm on a VERSMax ELISA Reader (Molecule Devices). The growth inhibition of the compound against tumor cells was calculated according to the following equation: Growth inhibition (%)=(ODcontrol−ODtreated)/ODcontrol×100%.
(§5) IC50 (the concentration of the sample compound that is required for 50% inhibition of cell growth) was calculated by using the Logit method based on the measurement, and each test was repeated for 3 times to calculate the mean value and standard deviation.

[5] = test system: SGC-7901 (Gastric Cancer); experiment: SRB assay, SGC-7901; type: cell-based; conditions: Homo sapiens, 72 h, read-out: IC50 (μM) (mean ± SD)
Protocol: as §4, §5

SMMC-7721 (Liver Cancer) = experiment: SRB assay, SMMC-7721; type: cell-based; conditions: Homo sapiens, 72 h, read-out: IC50 (μM) (mean ± SD)
Protocol: as §4, §5

[6] = test system: MDA-MB-435 (Breast Cancer); experiment: SRB assay, MDA-MB-435; type: cell-based; conditions: Homo sapiens, 72 h, read-out: IC50 (μM) (mean ± SD)
Protocol: as §4, §5

7404 (Liver Cancer) = experiment: SRB assay, 7404; type: cell-based; conditions: 72 h, read-out: IC50 (μM) (mean ± SD)
Protocol: as §4, §5

HO-8910 (Ovarian Cancer) = experiment: SRB assay, HO-8910; type: cell-based; conditions: 72 h, read-out: IC50 (μM) (mean ± SD)
Protocol: as §4, §5

BEL-7402 (Liver Cancer) = experiment: SRB assay, BEL-7402; type: cell-based; conditions: Homo sapiens, 72 h, read-out: IC50 (μM) (mean ± SD)
Protocol: as §4, §5

HepG2 (Liver Cancer) = experiment: SRB assay, HepG2; type: cell-based; conditions: Homo sapiens, 72 h, read-out: IC50 (μM) (mean ± SD)
Protocol: as §4, §5

A549 (Lung Cancer) = experiment: SRB assay, A549; type: cell-based; conditions: Homo sapiens, 72 h, read-out: IC50 (μM) (mean ± SD)
Protocol: as §4, §5

DU145 (Prostatic Cancer) = experiment: SRB assay, DU145; type: cell-based; conditions: Homo sapiens, DU-145, 72 h, read-out: IC50 (μM) (mean ± SD)
Protocol: as §4, §5

Zip177 (Liver Cancer) = experiment: SRB assay, Zip177; type: cell-based; conditions: 72 h, read-out: IC50 (μM) (mean ± SD)
Protocol: as §4, §5

[7] = test system: HPAF-II (Pancreatic Cancer); experiment: SRB assay, HPAF-II; type: cell-based; conditions: Homo sapiens, 72 h, read-out: IC50 (μM) (mean ± SD)
Protocol: as §4, §5

HMEC (Others) = experiment: SRB assay, HMEC; type: cell-based; conditions: Homo sapiens, 72 h, read-out: IC50 (μM) (mean ± SD)
Protocol: as §4, §5

[8] = background; cited from earlier work
human tumor cells = conditions: background; cited from earlier work
[9] = test system: heterograft of MDA-MB-4355 human breast cancer cells; conditions: background; cited from earlier work
[10] = clinical study entered 2001; cited from earlier work
[11] = note: MDA-MB-435S, read-out: IC50 (MDA-MB-435)
[12] = read-out: Cell Survival Rate IC50

Row | SMILES | IC50 [1, 11] [µM] | IC50 [1, 12] [µM] | IC50 [2] [µM] | IC50 [3] [µM] | IC50 [4] [µM] | IC50 (HCT-116 (Colon Cancer)) [µM] | IC50 [5] [µM] | IC50 (SMMC-7721 (Liver Cancer)) [µM] | IC50 [6] [µM] | IC50 (7404 (Liver Cancer)) [µM] | IC50 (HO-8910 (Ovarian Cancer)) [µM] | IC50 (BEL-7402 (Liver Cancer)) [µM] | IC50 (HepG2 (Liver Cancer)) [µM] | IC50 (A549 (Lung Cancer)) [µM] | IC50 (DU145 (Prostatic Cancer)) [µM] | IC50 (Zip177 (Liver Cancer)) [µM] | IC50 [7] [µM] | IC50 (HMEC (Others)) [µM] | also measured
1 | CO[C@@H](C(=O)N[C@@H](C)C(=O)NCCOC1CCCCC1)[C@H](O)[C@@H](O)[C@H](O)/C=C/C(C)(C)C [Compound L458e] | 2.83 ± 0.695 | 2.19 | 0.594 ± 0.069 | 0.822 ± 0.175 | 1.51 ± 0.283 | – | – | – | – | – | – | – | – | – | – | – | – | – | –
2 | CO[C@@H](C(=O)N[C@@H](C)C(=O)NCCOC(=O)C1CC=CCC1)[C@H](O)[C@@H](O)[C@H](O)/C=C/C(C)(C)C (stereo partly drawn) [Compound L484] | 0.541 ± 0.205 | 0.54 | 0.219 ± 0.03 | 0.188 ± 0.042 | 0.13 ± 0.015 | – | – | – | – | – | – | – | – | – | – | – | – | – | –
3 | CO[C@@H](C(=O)N[C@@H](C)C(=O)NCCOC(=O)C1CCCCC1)[C@H](O)[C@@H](O)[C@H](O)/C=C/C(C)(C)C [Compound L486d] | 0.284 ± 0.1 | 0.28 | 0.075 ± 0.014 | 0.165 ± 0.03 | 0.097 ± 0.013 | – | – | – | – | – | – | – | – | – | – | – | – | – | –
4 | CO[C@@H](C(=O)N[C@@H](C)C(=O)NCCOC(=O)CCc1ccccc1)[C@H](O)[C@@H](O)[C@H](O)/C=C/C(C)(C)C [Compound L508] | 0.398 ± 0.128 | – | 0.076 ± 0.008 | 0.158 ± 0.032 | 0.071 ± 0.007 | 0.35 ± 0.11 | 2.21 ± 0.67 | 0.65 ± 0.26 | 0.08 ± 0.01 | > 20 | > 20 | 0.33 ± 0.21 | 0.56 ± 0.08 | 0.03 ± 0.01 | 0.29 ± 0.06 | 0.4 ± 0.21 | 1.57 ± 0.35 | 0.21 ± 0.02 | –
5 | CCOC(=O)C(COC(=O)C1CCCCC1)NC(=O)[C@H](C)NC(=O)[C@H](OC)[C@H](O)[C@@H](O)[C@H](O)/C=C/C(C)(C)C (stereo partly drawn) [Compound L558a] | 0.201 ± 0.047 | 0.2 | 0.098 ± 0.018 | 0.024 ± 0.003 | 0.051 ± 0.005 | 0.58 ± 0.25 | 1.97 ± 0.86 | 0.41 ± 0.15 | 0.14 ± 0.13 | > 20 | > 20 | 0.28 ± 0.01 | 1.11 ± 0.49 | 0.08 ± 0.02 | 0.14 ± 0.01 | 0.26 ± 0.05 | 2.01 ± 1.06 | 0.25 ± 0.14 | –
6 | CO[C@@H](C(=O)N[C@H]1CC[C@@H](OC(=O)C2CCCCC2)CNC1=O)[C@H](O)[C@@H](O)[C@H](O)/C=C/C(C)(C)C [LAF389, reference compound] | – | 0.61 | – | – | – | 0.63 ± 0.18 | 4.96 ± 0.4 | 1.25 ± 0.76 | 0.29 ± 0.02 | > 20 | > 20 | 0.56 ± 0.4 | 0.21 ± 0.09 | 0.05 ± 0.01 | 0.42 ± 0.21 | 2.79 ± 0.15 | 3.23 ± 2.13 | 0.83 ± 0.45 | solubility [8]: good solubility; activities against human tumor cells in vitro (human tumor cells): comparable to Bengamide B; growth of heterograft in vivo [9]: comparable to Bengamide B; side effects in clinical study [10]: side effects such as taste disturbance, blurred vision; therapeutic effects in clinical study [10]: did not possess the foreseen therapeutic effects
7 | CCCCCCCCCCCCCC(=O)O[C@H]1CC[C@H](NC(=O)[C@H](OC)[C@H](O)[C@@H](O)[C@H](O)/C=C/C(C)C)C(=O)N(C)C1 [bengamide B] | – | – | – | – | – | – | – | – | – | – | – | – | – | – | – | – | – | – | solubility [8]: poor solubility; activities against human tumor cells in vitro (human tumor cells): nanomolar level; growth of heterograft in vivo [9]: remarkably depress the growth
